The supplement of paper PMC11919725

How the values were obtained:
Jurkat [1] = assay: cytotoxicity relative to DMSO, 18 h (ratio); higher = less cell death (drugs called cytotoxic fall below 1)
Outline: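 The assay used Jurkat cells or naive or CD3/CD28 Dynabead-activated (48 h) primary CD4+/CD8+ T cells, incubated with compound at 1 nM–10 µM in log10 steps for 18 h at 37 °C, 5% CO2. Cytotoxicity was assessed with IncuCyte Cytotox Dye and IncuCyte fluorescence imaging, corrected for confluency and scaled to mean control signals.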

Jurkat [2] = assay: confluency relative to DMSO, 18 h (ratio); higher = more viable
Outline: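 Compound was applied at 1 nM–10 µM (log10 steps) for 18 h at 37 °C, 5% CO2 to Jurkat cells or to primary CD4+/CD8+ T cells that were naive or had been activated 48 h with CD3/CD28 Dynabeads. Suspension (100 µl) was then plated in 96-well plates with IncuCyte Cytotox Dye and alamarBlue and imaged hourly over 3 h (×10, five images per well). Confluency was calculated from the IncuCyte phase-contrast images using the Basic Analyzer and normalised to the mean of the control wells.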

Jurkat [3] = assay: metabolic activity relative to DMSO, 18 h (ratio); higher = more viable
Outline: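 Jurkat cells and primary CD4+/CD8+ T cells, naive or activated for 48 h on CD3/CD28 Dynabeads, were incubated for 18 h with compound at 1 nM–10 µM. Fluorescence was read 3.5 h after alamarBlue addition (10% v/v final) at excitation 544 nm and emission 584 nm. Metabolic activity is normalised to the mean of vehicle controls.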

Row | SMILES | cytotoxicity (Jurkat [1]; 1 nM) | cytotoxicity (Jurkat [1]; 10 nM) | cytotoxicity (Jurkat [1]; 100 nM) | cytotoxicity (Jurkat [1]; 1000 nM) | cytotoxicity (Jurkat [1]; 10000 nM) | confluency (Jurkat [2]; 1 nM) | confluency (Jurkat [2]; 10 nM) | confluency (Jurkat [2]; 100 nM) | confluency (Jurkat [2]; 1000 nM) | confluency (Jurkat [2]; 10000 nM) | metabolic activity (Jurkat [3]; 1 nM) | metabolic activity (Jurkat [3]; 10 nM) | metabolic activity (Jurkat [3]; 100 nM) | metabolic activity (Jurkat [3]; 1000 nM) | metabolic activity (Jurkat [3]; 10000 nM)
1 | O=C1NC(=O)C(=Cc2ccc3nccc(-c4ccncc4)c3c2)S1 | 0.944 | 0.984 | 0.956 | 0.762 | 0.804 | 0.989 | 0.988 | 0.968 | 0.812 | 1.01 | 0.992 | 0.956 | 0.964 | 0.723 | 0.426
2 | O=C(O)c1ccc(CN2CCC(CNC3CC3c3ccccc3)CC2)cc1 (stereo not given) | 1 | 1.04 | 1.1 | 1.04 | 1.03 | 0.954 | 0.956 | 0.996 | 0.987 | 0.993 | 1.09 | 1.06 | 1.09 | 1.08 | 1.02
3 | CC(C)CC(=O)Nc1n[nH]c2c1CN(C(=O)C1CCN(C)CC1)C2(C)C | 0.914 | 0.908 | 1.05 | 1.07 | 0.406 | 0.887 | 0.876 | 0.978 | 0.97 | 0.591 | 1.17 | 1.2 | 1.26 | 1.24 | 0.438
4 | Cc1c(Cn2c(C)nc3c(C(=O)O)cc(N4CCOCC4)cc32)cccc1C(F)(F)F | 0.881 | 0.947 | 1.05 | 1.14 | 1.01 | 0.923 | 0.973 | 1.05 | 1.03 | 0.998 | 0.862 | 0.891 | 1 | 1.25 | 1.08
5 | COc1ccc(-c2cc3c(C)nc(N)nc3n(C3CCC(OCCO)CC3)c2=O)cn1 (stereo not given) | 1.02 | 0.94 | 0.882 | 0.666 | 0.721 | 1.01 | 0.951 | 0.927 | 0.741 | 0.9 | 1.08 | 1.01 | 0.734 | 0.562 | 0.402
6 | COc1ccc(Cn2ccc3ccc(C(=O)NO)cc32)cc1 | 0.955 | 0.926 | 0.954 | 1.04 | 0.938 | 1.01 | 1.01 | 1 | 1.01 | 1 | 1.03 | 0.992 | 1.02 | 1.01 | 1.02
7 | COCCN1CCN(Cc2ccc(-c3n[nH]c4c3C(=O)c3c(NC(=O)NN5CCOCC5)cccc3-4)cc2)CC1.Cl.Cl | 0.969 | 0.715 | 0.581 | 0.639 | 0.62 | 0.976 | 0.788 | 0.898 | 0.951 | 0.909 | 1.05 | 0.968 | 0.223 | 0.221 | 0.198
8 | Cc1sc2c(c1C)C(c1ccc(Cl)cc1)=NC(CC(=O)OC(C)(C)C)c1nnc(C)n1-2 (single isomer, unassigned; (+)) [(+)-JQ-1] | 1.09 | 0.985 | 1.22 | 1.07 | 0.995 | 1.02 | 0.962 | 1.02 | 1.01 | 1.02 | 1.05 | 0.989 | 1.13 | 1.1 | 0.987
9 | Nc1ncn(C2OC(CO)C(O)C2O)c(=O)n1 (stereo not given) [5-Azacytidine] | 0.896 | 0.89 | 1.12 | 1 | 1.12 | 0.777 | 0.792 | 0.976 | 0.919 | 0.961 | 1.05 | 1.03 | 1.03 | 0.994 | 0.344
10 | O=c1[nH]cc(F)c(=O)[nH]1 [5-Fluorouracil] | 0.997 | 0.931 | 0.995 | 0.946 | 0.985 | 1 | 0.981 | 0.992 | 0.978 | 0.996 | 1.03 | 0.913 | 0.967 | 0.999 | 0.971
11 | O=C(NO)c1cnc(NC2(c3ccccc3)CC2)nc1 [ACY738] | 0.969 | 0.95 | 1.15 | 1.05 | 0.982 | 1.01 | 0.994 | 1.03 | 0.995 | 0.999 | 0.936 | 0.962 | 1.1 | 0.862 | 0.713
12 | Cc1csc(-c2nnc(Nc3ccc(Oc4ncccc4-c4ccnc(N)n4)cc3)c3ccccc23)c1 [AMG-900] | 0.919 | 0.897 | 0.856 | 0.848 | 0.823 | 0.926 | 0.91 | 0.92 | 0.874 | 0.878 | 0.99 | 0.973 | 1.02 | 0.871 | 0.865
13 | CC(C)C(C(=O)Nc1ccc(C(=O)NO)cc1)c1ccccc1 (stereo not given) [AR-42] | 0.947 | 1.02 | 0.892 | 0.807 | 0.811 | 0.972 | 0.984 | 0.941 | 0.97 | 0.97 | 0.942 | 1.02 | 0.934 | 0.577 | 0.695
14 | Cc1ncc(-c2ccnc(Nc3ccc(S(C)(=O)=O)cc3)n2)n1C(C)C [AZD-5438] | 0.927 | 0.91 | 0.951 | 1.03 | 1.02 | 1.06 | 1.12 | 0.972 | 0.991 | 0.944 | 1.08 | 1.14 | 1.14 | 1.08 | 0.124
15 | Cc1cc(C(C)Nc2ccccc2C(=O)O)c2nc(N3CCOCC3)cc(=O)n2c1 (stereo not given) [AZD-6482] | 1.19 | 1.22 | 1.14 | 1.06 | 0.946 | 1.03 | 1.03 | 0.994 | 0.984 | 0.928 | 1.16 | 1.14 | 1.03 | 1.03 | 0.923
16 | COc1ccc(-c2ccc3c(N4CCOCC4C)nc(N4CCOCC4C)nc3n2)cc1CO (stereo not given) [AZD-8055] | 0.884 | 0.815 | 0.84 | 0.834 | 0.823 | 0.982 | 1 | 0.96 | 0.99 | 0.99 | 0.971 | 0.823 | 0.622 | 0.572 | 0.537
17 | CC(Nc1cc(F)cc(F)c1)c1cc(C(=O)N(C)C)cc2c(=O)cc(N3CCOCC3)oc12 (stereo not given) [AZD-8186] | 0.895 | 0.858 | 0.928 | 0.803 | 0.831 | 0.882 | 0.901 | 0.946 | 0.826 | 0.846 | 0.891 | 1.03 | 1.01 | 1.03 | 1.08
18 | CCN1CCN(Cc2ccc(Nc3ncc(F)c(-c4cc(F)c5nc(C)n(C(C)C)c5c4)n3)nc2)CC1 [Abemaciclib] | 1.04 | 1.13 | 1.06 | 1.09 | 0.718 | 0.952 | 1.02 | 0.98 | 0.991 | 0.818 | 1.22 | 1.24 | 1.2 | 1.15 | 0.888
19 | Cc1c2oc3c(C)ccc(C(=O)NC4C(=O)NC(C(C)C)C(=O)N5CCCC5C(=O)N(C)CC(=O)N(C)C(C(C)C)C(=O)OC4C)c3nc-2c(C(=O)NC2C(=O)NC(C(C)C)C(=O)N3CCCC3C(=O)N(C)CC(=O)N(C)C(C(C)C)C(=O)OC2C)c(N)c1=O (stereo not given) [Actinomycin D] | 1.08 | 1.02 | 0.661 | 0.517 | 0.477 | 1.11 | 1.09 | 0.972 | 0.907 | 0.923 | 0.959 | 0.746 | 0.2 | 0.152 | 0.192
20 | Cc1nc(NC(=O)N2CCCC2C(N)=O)sc1-c1ccnc(C(C)(C)C(F)(F)F)c1 (stereo not given) [Alpelisib] | 0.929 | 0.926 | 0.959 | 0.997 | 0.881 | 0.994 | 0.977 | 0.984 | 1.02 | 0.933 | 1.04 | 0.899 | 0.903 | 0.94 | 0.873
21 | CN1CCC(c2c(O)cc(O)c3c(=O)cc(-c4ccccc4Cl)oc23)C(O)C1 (stereo not given) [Alvocidib] | 1.03 | 0.92 | 0.89 | 0.505 | 0.526 | 0.999 | 0.999 | 0.974 | 0.927 | 0.939 | 1.04 | 0.946 | 0.712 | 0.086 | 0.108
22 | COc1cc(OC)c2c(=O)[nH]c(-c3cc(C)c(OCCO)c(C)c3)nc2c1 [Apabetalone] | 1.06 | 1.08 | 1.01 | 1.04 | 1.01 | 1.08 | 1.11 | 1.04 | 1.08 | 1.1 | 0.842 | 0.904 | 0.962 | 0.952 | 0.932
23 | Cc1c(CN2CCN(C(=O)C(C)O)CC2)sc2c(N3CCOCC3)nc(-c3cnc(N)nc3)nc12 (stereo not given) [Apitolisib] | 0.79 | 0.992 | 0.752 | 0.937 | 0.628 | 0.851 | 1.06 | 0.825 | 0.998 | 0.727 | 0.857 | 0.984 | 0.899 | 0.955 | 0.781
24 | COc1ccc(-c2ccc3ncc4c(c3c2)n(-c2ccc(N3CCNCC3)c(C(F)(F)F)c2)c(=O)n4C)cn1 [BGT-226] | 1.02 | 0.915 | 0.808 | 0.672 | 0.448 | 1.03 | 0.954 | 0.935 | 0.793 | 0.831 | 0.968 | 0.842 | 0.693 | 0.604 | 0.048
25 | CCS(=O)(=O)N1CC(CC#N)(n2cc(-c3ncnc4[nH]ccc34)cn2)C1 [Baricitinib] | 0.929 | 0.913 | 1.02 | 0.869 | 0.802 | 0.989 | 0.95 | 0.965 | 0.879 | 0.812 | 0.956 | 1.04 | 1.22 | 1.11 | 0.878
26 | O=C(C=Cc1cccc(S(=O)(=O)Nc2ccccc2)c1)NO [Belinostat] | 1.08 | 1.14 | 1.07 | 1.18 | 0.932 | 1.04 | 1.07 | 0.966 | 1.02 | 0.87 | 0.982 | 1.06 | 1.09 | 0.811 | 0.635
27 | Cn1cnc2c(F)c(Nc3ccc(Br)cc3F)c(C(=O)NOCCO)cc21 [Binimetinib] | 1.13 | 1.22 | 1 | 0.926 | 0.948 | 1 | 1.01 | 0.975 | 0.959 | 0.989 | 1.13 | 1.12 | 0.989 | 0.909 | 0.933
28 | CC(C)CC(NC(=O)C(Cc1ccccc1)NC(=O)c1cnccn1)B(O)O (stereo not given) [Bortezomib] | 1.02 | 0.944 | 0.569 | 0.531 | 0.539 | 0.99 | 0.969 | 0.721 | 0.934 | 0.951 | 1.2 | 1.13 | 0.556 | 0.181 | 0.149
29 | COc1cc(N2CCC(N3CCN(C)CC3)CC2)ccc1Nc1ncc(Cl)c(Nc2ccccc2P(C)(C)=O)n1 [Brigatinib] | 0.701 | 0.654 | 0.641 | 0.614 | 0.565 | 0.851 | 1.08 | 1.14 | 1.13 | 1.07 | 0.883 | 0.946 | 0.911 | 0.83 | 0.766
30 | CCOC(=O)Nc1cc(-c2ccc(C)c(NS(C)(=O)=O)c2)nn2c(C)nnc12 [Bromosporine] | 0.92 | 0.952 | 0.977 | 1.19 | 1.11 | 0.963 | 1 | 1.02 | 1.2 | 1.18 | 0.994 | 0.938 | 0.79 | 0.846 | 0.811
